# Source: patent US8563553B2, “Compounds and compositions as protein kinase inhibitors” (Novartis AG, priority 2009, dated 2013)
# Biological target: b-Raf(V600E) (Homo sapiens (Human), UniProt P15056, V600E)
# Experiment: Raf/Mek Amplified Luminescence Proximity Homogeneous Assay (Alpha Screen)
# Type: biochemical
# Conditions: b-Raf(V600E) approximately 4 pM; biotinylated Mek, kinase dead approximately 10 nM; ATP 10 μM; pre-incubation 60 minutes; reaction 3 hours at room temperature; read-out: mut-B-RAF IC50
# Description: Raf/Mek Amplified Luminescence Proximity Homogeneous Assay
# Assay buffer: 50 mM Tris, pH 7.5, 15 mM MgCl2, 0.01% Bovine Serum Albumin (BSA), 1 mM dithiothreitol (DTT) Stop buffer: 60 mM ethylenediaminetetraacetic acid (EDTA), 0.01% Tween® 20 Bead buffer: 50 mM Tris, pH 7.5, 0.01% Tween® 20 […]
# biotinylated Mek, kinase dead
# Alpha Screen detection kit (available from PerkinElmer™, #6760617R)
# Anti phospho-MEK1/2 (available from Cell Signaling Technology, Inc. #9121) 384 well assay plates (White Greiner® plates, #781207) […]
# biotinylated Mek, Kinase dead approximately 10 nM
# Pre-incubation time with compounds 60 minutes at room temperature
# Reaction time 1 or 3 hours at room temperature
# Raf and biotinylated Mek, kinase dead, were combined at 2× final concentrations in assay buffer (50 mM Tris, pH 7.5, 15 mM MgCl2, 0.01% BSA and 1 mM DTT) and dispensed 10 μl per well in assay plates (Greiner white 384 well assay plates #781207) containing 0.5 μl of 40× of a raf kinase inhibitor test compound diluted in 100% DMSO. The plate was incubated for 60 minutes at room temperature.
# The Raf kinase activity reaction was started by the addition of 10 μL per well of 2×ATP diluted in assay buffer. […] Phosphorylated product was measured using a rabbit anti-p-MEK (Cell Signaling, #9121) antibody and the Alpha Screen IgG (ProteinA) detection Kit (PerkinElmer #6760617R), by the addition of 30 μL to the well of a mixture of the antibody (1:2000 dilution) and detection beads (1:2000 dilution of both beads) in bead buffer (50 mM Tris, pH 7.5, 0.01% Tween20). The additions were carried out under dark conditions to protect the detection beads from light. A lid was placed on top of the plate and incubated for 1 hour at room temperature, then the luminescence was read on a PerkinElmer Envision instrument. The concentration of each compound for 50% inhibition (IC50) was calculated by non-linear regression using XL Fit data analysis software.
# b-Raf(V600E), sequence (P15056 whole entry V600E): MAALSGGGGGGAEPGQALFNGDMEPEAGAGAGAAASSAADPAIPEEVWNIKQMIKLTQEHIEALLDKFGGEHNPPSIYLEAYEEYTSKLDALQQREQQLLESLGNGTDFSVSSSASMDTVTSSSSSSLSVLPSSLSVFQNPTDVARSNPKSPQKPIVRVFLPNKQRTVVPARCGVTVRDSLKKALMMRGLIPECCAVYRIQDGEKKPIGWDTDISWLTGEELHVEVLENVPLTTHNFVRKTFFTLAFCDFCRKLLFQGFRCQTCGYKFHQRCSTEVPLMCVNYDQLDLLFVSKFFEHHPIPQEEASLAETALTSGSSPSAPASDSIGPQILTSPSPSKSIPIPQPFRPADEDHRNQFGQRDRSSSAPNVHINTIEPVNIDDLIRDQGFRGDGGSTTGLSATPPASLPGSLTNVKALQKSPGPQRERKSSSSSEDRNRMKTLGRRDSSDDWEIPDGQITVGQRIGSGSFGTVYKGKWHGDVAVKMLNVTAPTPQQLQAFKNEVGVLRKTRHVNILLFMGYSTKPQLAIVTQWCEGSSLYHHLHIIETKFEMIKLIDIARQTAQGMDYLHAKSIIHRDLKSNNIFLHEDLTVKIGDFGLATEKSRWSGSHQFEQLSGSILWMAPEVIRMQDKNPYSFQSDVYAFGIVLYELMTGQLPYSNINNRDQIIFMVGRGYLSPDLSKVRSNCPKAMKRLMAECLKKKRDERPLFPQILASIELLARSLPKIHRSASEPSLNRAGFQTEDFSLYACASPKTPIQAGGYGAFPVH
row,IC50,Compound
1,0.37 nM,"Cc1cc(NS(C)(=O)=O)c(F)c(-c2nc(C3(C)CC3)[nH]c2-c2ccnc(NCCC#N)n2)c1 [Example 1BA, N-(3-(5-(2-(2-Cyanoethylamino)pyrimidin-4-yl)-2-(1-methylcyclopropyl)-1H-imidazol-4-yl)-2-fluoro-5-methylphenyl)methanesulfonamide]"
2,11 nM,"COC(=O)N[C@H](C)CNc1nccc(-c2[nH]c(C3CC3)nc2-c2cc(F)cc(NS(C)(=O)=O)c2Cl)n1 [Example 1AV, (R)-Methyl 1-(4-(4-(2-chloro-5-fluoro-3-(methylsulfonamido)phenyl)-2-cyclopropyl-1H-imidazol-5-yl)pyrimidin-2-ylamino)propan-2-ylcarbamate]"
3,0.13 nM,"CCCS(=O)(=O)Nc1cccc(-c2nc(C3CC3)[nH]c2-c2ccnc(NCCC#N)n2)c1F [Example 4G, N-(3-(5-(2-(2-Cyanoethylamino)pyrimidin-4-yl)-2-cyclopropyl-1H-imidazol-4-yl)-2-fluorophenyl)propane-1-sulfonamide]"
4,0.28 nM,"COC(=O)N[C@@H](C)CNc1nccc(-c2[nH]c(C(C)(C)C)nc2-c2cc(Cl)cc(NS(C)(=O)=O)c2F)n1 [Example 1AI, (S)-Methyl 1-(4-(2-tert-butyl-4-(5-chloro-2-fluoro-3-(methylsulfonamido)phenyl)-1H-imidazol-5-yl)pyrimidin-2-ylamino)propan-2-ylcarbamate]"
5,87 nM,"CS(=O)(=O)Nc1cc(F)cc(-c2nc(C3CC3)[nH]c2-c2ccncn2)c1Cl [Example 2J, N-(2-Chloro-3-(2-cyclopropyl-5-(pyrimidin-4-yl)-1H-imidazol-4-yl)-5-fluorophenyl)methanesulfonamide]"
6,0.78 nM,COC(=O)N[C@@H](C)CNc1nccc(-c2[nH]c(C(C)(C)C)nc2-c2cccc(NS(=O)(=O)C(C)C)c2F)n1 [Example 2D]
7,0.1 nM,"COC(=O)N[C@@H](C)CNc1nccc(-c2[nH]c(C3CC3)nc2-c2cc(F)cc(NS(=O)(=O)c3c(F)cccc3F)c2Cl)n1 [Example 1BI, (S)-Methyl 1-(4-(4-(2-chloro-3-(2,6-difluorophenylsulfonamido)-5-fluorophenyl)-2-cyclopropyl-1H-imidazol-5-yl)pyrimidin-2-ylamino)propan-2-ylcarbamate]"
8,28 nM,"C[C@H](O)CNc1nccc(-c2[nH]c(C3CC3)nc2-c2cccc(NS(C)(=O)=O)c2F)n1 [Example 3B, (S)—N-(3-(2-cyclopropyl-5-(2-(2-hydroxypropylamino)pyrimidin-4-yl)-1H-imidazol-4-yl)-2-fluorophenyl)methanesulfonamide]"
9,0.1 nM,"CCS(=O)(=O)Nc1cc(Cl)cc(-c2nc(C(C)(C)C)[nH]c2-c2ccnc(NC[C@H](C)NC(=O)OC)n2)c1 [Example 1I, (S)-Methyl 1-(4-(2-tert-butyl-4-(3-chloro-5-(ethylsulfonamido)phenyl)-1H-imidazol-5-yl)pyrimidin-2-ylamino)propan-2-ylcarbamate]"
10,1 nM,"CC1(c2nc(-c3cccc(NS(C)(=O)=O)c3Cl)c(-c3ccnc(NCCC#N)n3)[nH]2)CC1 [Example 1BC, N-(2-Chloro-3-(5-(2-(2-cyanoethylamino)pyrimidin-4-yl)-2-(1-methylcyclopropyl)-1H-imidazol-4-yl)phenyl)methanesulfonamide]"
11,0.22 nM,"CC(C)(C)c1nc(-c2cccc(NS(=O)(=O)c3c(F)cccc3F)c2Cl)c(-c2ccnc(N)n2)[nH]1 [Example 1BK, N-(3-(5-(2-Aminopyrimidin-4-yl)-2-tert-butyl-1H-imidazol-4-yl)-2-chlorophenyl)-2,6-difluorobenzenesulfonamide]"
12,1.08 nM,"COC(=O)N[C@@H](C)CNc1nccc(-c2[nH]c(C(C)(C)C)nc2-c2cccc(NS(=O)(=O)CCC(F)(F)F)c2F)n1 [Example 4E, (S)-Methyl 1-(4-(2-tert-butyl-4-(2-fluoro-3-(3,3,3-trifluoropropylsulfonamido)phenyl)-1H-imidazol-5-yl)pyrimidin-2-ylamino)propan-2-ylcarbamate]"
13,25 nM,"CC(C)Nc1nccc(-c2[nH]c(C3CC3)nc2-c2cc(F)cc(NS(C)(=O)=O)c2Cl)n1 [Example 1AT, N-(2-Chloro-3-(2-cyclopropyl-5-(2-(isopropylamino)pyrimidin-4-yl)-1H-imidazol-4-yl)-5-fluorophenyl)methanesulfonamide]"
14,204 nM,"COC(=O)N[C@@H](C)CNc1nccc(-c2[nH]c(C(C)(C)C)nc2-c2cc(Cl)cc(NS(=O)(=O)C3CC3)c2C)n1 [Example 1N, (S)-Methyl 1-(4-(2-tert-butyl-4-(5-chloro-3-(cyclopropanesulfonamido)-2-methylphenyl)-1H-imidazol-5-yl)pyrimidin-2-ylamino)propan-2-ylcarbamate]"
15,7 nM,"COC(=O)N[C@@H](C)CNc1nccc(-c2[nH]c(C3CC3)nc2-c2cc(Cl)cc(NS(=O)(=O)c3ccc(C(F)(F)F)cc3)c2F)n1 [Example 1BN, (S)-Methyl 1-(4-(4-(5-chloro-2-fluoro-3-(4-(trifluoromethyl)phenylsulfonamido)phenyl)-2-cyclopropyl-1H-imidazol-5-yl)pyrimidin-2-ylamino)propan-2-ylcarbamate]"
16,0.26 nM,"CC(C)(C)c1nc(-c2cc(F)cc(NS(=O)(=O)c3c(F)cccc3F)c2Cl)c(-c2ccnc(N)n2)[nH]1 [Example 1BP, N-(3-(5-(2-Aminopyrimidin-4-yl)-2-tert-butyl-1H-imidazol-4-yl)-2-chloro-5-fluorophenyl)-2,6-difluorobenzenesulfonamide]"
17,0.26 nM,"COC(=O)N[C@@H](C)CNc1nccc(-c2nc(C3CC3)[nH]c2-c2cc(Cl)cc(NS(=O)(=O)CC3CC3)c2F)n1 [Example 1AC, (S)-Methyl 1-(4-(5-(5-chloro-3-(cyclopropylmethylsulfonamido)-2-fluorophenyl)-2-cyclopropyl-1H-imidazol-4-yl)pyrimidin-2-ylamino)propan-2-ylcarbamate]"
18,1 nM,"COC(=O)N[C@@H](C)CNc1nccc(-c2nc(C3(C)CC3)[nH]c2-c2cccc(NS(C)(=O)=O)c2Cl)n1 [Example 1AO, (S)-Methyl 1-(4-(5-(2-chloro-3-(methylsulfonamido)phenyl)-2-(1-methylcyclopropyl)-1H-imidazol-4-yl)pyrimidin-2-ylamino)propan-2-ylcarbamate]"
19,2040 nM,COC(=O)N[C@@H](C)CNc1nccc(-c2[nH]c(-c3ccc(F)cc3F)nc2-c2cc(F)cc(NS(C)(=O)=O)c2Cl)n1 [Example 1BY]
20,0.08 nM,"CCCS(=O)(=O)Nc1cc(Cl)cc(-c2nc(C(C)(C)C)[nH]c2-c2ccnc(N)n2)c1F [Example 1BH, N-(3-(5-(2-Aminopyrimidin-4-yl)-2-tert-butyl-1H-imidazol-4-yl)-5-chloro-2-fluorophenyl)propane-1-sulfonamide]"
21,1 nM,"COC(=O)N[C@@H](C)CNc1nccc(-c2nc(C3(C)CC3)[nH]c2-c2cc(C)cc(NS(C)(=O)=O)c2F)n1 [Example 1AM, (S)-Methyl 1-(4-(5-(2-fluoro-5-methyl-3-(methylsulfonamido)phenyl)-2-(1-methylcyclopropyl)-1H-imidazol-4-yl)pyrimidin-2-ylamino)propan-2-ylcarbamate]"
22,0.55 nM,"COC(=O)N[C@@H](C)CNc1nccc(-c2[nH]c(C3CC3)nc2-c2cccc(NS(C)(=O)=O)c2F)n1 [Example 1U, (S)-Methyl 1-(4-(2-cyclopropyl-4-(2-fluoro-3-(methylsulfonamido)phenyl)-1H-imidazol-5-yl)pyrimidin-2-ylamino)propan-2-ylcarbamate]"
23,578 nM,"CNc1nccc(-c2[nH]c(C3CC3)nc2-c2cccc(NS(C)(=O)=O)c2F)n1 [Example 3A-2, N-(3-(2-cyclopropyl-5-(2-(methylamino)pyrimidin-4-yl)-1H-imidazol-4-yl)-2-fluorophenyl)methanesulfonamide]"
24,5 nM,"CC(C)(C)c1nc(-c2cc(F)cc(NS(C)(=O)=O)c2Cl)c(-c2ccnc(N)n2)[nH]1 [Example 1BJ, N-(3-(5-(2-Aminopyrimidin-4-yl)-2-tert-butyl-1H-imidazol-4-yl)-2-chloro-5-fluorophenyl)methanesulfonamide]"
25,4 nM,"CS(=O)(=O)Nc1cccc(-c2nc(C3CC3)[nH]c2-c2ccnc(NCCC#N)n2)c1F [Example 2E, N-(3-(5-(2-(2-Cyanoethylamino)pyrimidin-4-yl)-2-cyclopropyl-1H-imidazol-4-yl)-2-fluorophenyl)methanesulfonamide]"
26,0.2 nM,"COC(=O)N[C@@H](C)CNc1nccc(-c2[nH]c(C3CC3)nc2-c2cc(C)cc(NS(C)(=O)=O)c2F)n1 [Example 1B, (S)-methyl 1-(4-(2-cyclopropyl-4-(2-fluoro-5-methyl-3-(methylsulfonamido)phenyl)-1H-imidazol-5-yl)pyrimidin-2-ylamino)propan-2-ylcarbamate]"
